Key:
ApoE null mice [1] = experiment: Trabecular bone mineral density, peptide in drinking water; format: in vivo, mouse; conditions: drinking water for 6 weeks
ApoE null mice [2] = experiment: HDL and pre-beta HDL from apoE null mice fed solution-phase synthesized D-4F: inhibition of LDL-induced monocyte chemotaxis; format: in vivo, mouse; conditions: ApoE null mice fed 5 micrograms in chow, bled after twelve hours; product of solution phase synthesis
Description: ApoE null mice were fed 5 micrograms of the D-4F synthesized as described above (Frgmnt) or the mice were given the same amount of mouse chow without D-4F (Chow). Twelve hours after the feeding was started, the mice were bled and their plasma was fractionated on FPLC.

LDL receptor null mice = experiment: HDL protective capacity in LDL receptor null mice given peptide in drinking water; format: in vivo; conditions: 0.25 or 0.5 mg per ml of drinking water, 24 or 48 hrs, mouse HDL at 100 μg/ml
Experimental: FIG. 3 illustrates the effect of apo J peptide mimetics on HDL protective capacity in LDL receptor null mice. The values are the mean±SD of the number of migrated monocytes in 9 high power fields from each of quadruple assay wells.
D-4F designated as F, or the apoJ peptide made from D amino acids (D-J336, designated as J) was added to the drinking water of LDL receptor null mice (4 per group) at 0.25 or 0.5 mg per ml of drinking water. After 24- or 48-hrs blood was collected from the mice and their HDL was isolated and tested for its ability to protect against LDL-induced monocyte chemotactic activity. Assay controls included culture wells that received no lipoproteins (no addition), or control human LDL alone (designated as LDL, 200µg cholesterol/ml), or control LDL+ control human HDL (designated as +HDL, 350µg HDL cholesterol). For testing the mouse HDL, the control LDL was added together with mouse HDL (+F HDL or +J HDL) to artery wall cell cultures. The mouse HDL was added at 100 μg cholesterol/ml respectively.

ApoE null mice [3] = experiment: Protection against LDL-induced monocyte chemotactic activity by HDL from apo E null mice given oral peptides; format: in vivo, mouse; conditions: ApoE null mice, peptide in drinking water 24 hrs; murine HDL at 100 μg/ml
Description: FIG. 4 illustrates protection against LDL-induced monocyte chemotactic activity by HDL from apo E null mice given oral peptides. The values are the mean±SD of the number of migrated monocytes in 9 high power fields from each of quadruple assay wells. Asterisks indicate significant difference (p<0.05) as compared to No Peptide mHDL.
After 24 hrs blood was collected, plasma fractionated by FPLC and fractions containing LDL (designated as mLDL for murine LDL) and fractions containing HDL (designated as mHDL) were separately pooled and HDL protective capacity against LDL oxidation as determined by LDL-induced monocyte chemotactic activity was determined. For the assay controls the culture wells received no lipoproteins (no additions), mLDL alone (at 200 μg cholesterol/ml), or mLDL+ standard normal human HDL (designated as Cont. h HDL, at 350 μg HDL cholesterol/ml).
For testing the murine HDL, mLDL together with murine HDL (+F mHDL or +J mHDL) were added to artery wall cell cultures. […] The murine HDL was used at 100µg cholesterol/ml.

ApoE null mice [4] = experiment: HDL function after D-4F and/or statin in the drinking water; format: in vivo, mouse; conditions: 1 μg/ml in the drinking water for 24 hours
[5] = in vivo; cited from earlier work
ApoE null mice [6] = experiment: HDL Inflammatory Index, D-4F versus Reverse D-4F by stomach tube; format: in vivo, mouse; conditions: apoE null mice, 0, 3, 6, 12 or 25 micrograms by stomach tube, blood 7 hours later
Experimental: Female apoE null mice were administered by stomach tube 0, 3, 6, 12, or 25 micrograms of D-4F or Reverse D-4F in 100 microliters of water. Blood was obtained 7 hours later and the plasma was fractionated by FPLC. A standard control human LDL was added to human artery wall cells at a concentration of 100 micrograms of LDL-cholesterol/mL (LDL). The resulting monocyte chemotactic activity was normalized to 1.0. […] The resulting monocyte chemotactic activity was normalized to that of the LDL added without HDL. The resulting value is the HDL Inflammatory Index. The results shown are the Mean±S.D. for the data from three separate experiments.

[7] = mouse, in vivo
Obese Zucker rats = experiment: Plasma glucose and lipid hydroperoxides (LOOH) in obese Zucker rats; format: in vivo, rat; conditions: Obese Zucker rats 26 weeks of age, 5.0 mg/kg/day intraperitoneal, 10 days
Experimental: Obese Zucker rats 26 weeks of age were bled and then treated with daily intraperitoneal injections of D-4F (5.0 mg/kg/day). After 10 days the rats were bled again plasma glucose and lipid hydroperoxides (LOOH) were determined. *p=0.027; **p=0.0017.

## CC(=O)N[C@H](CC(=O)O)C(=O)N[C@H](Cc1c[nH]c2ccccc12)C(=O)N[C@H](Cc1ccccc1)C(=O)N[C@H](CCCCN)C(=O)N[C@H](C)C(=O)N[C@H](Cc1ccccc1)C(=O)N[C@H](Cc1ccc(O)cc1)C(=O)N[C@H](CC(=O)O)C(=O)N[C@H](CCCCN)C(=O)N[C@@H](C(=O)N[C@H](C)C(=O)N[C@H](CCC(=O)O)C(=O)N[C@H](CCCCN)C(=O)N[C@H](Cc1ccccc1)C(=O)N[C@H](CCCCN)C(=O)N[C@H](CCC(=O)O)C(=O)N[C@H](C)C(=O)N[C@H](Cc1ccccc1)C(N)=O)C(C)C [Peptide D-4F, Ac-D-W-F-K-A-F-Y-D-K-V-A-E-K-F-K-E-A-F-NH2]
ApoE null mice [1]
  trabecular bone mineral density: dramatically increased trabecular bone mineral density
ApoE null mice [2]
  biological activity in producing HDL and pre-beta HDL that inhibit LDL-induced monocyte chemotaxis: very biologically active in producing HDL and pre-beta HDL that inhibit LDL-induced monocyte chemotaxis
LDL receptor null mice
  activity of mouse HDL in preventing control LDL from inducing artery wall cells to produce monocyte chemotactic activity: as active as 350 μg/ml of control human HDL
ApoE null mice [3]
  activity of murine HDL against LDL-induced monocyte chemotactic activity: as active as 350µg/ml of normal human HDL
ApoE null mice [4]
  HDL function, D-4F alone: did not significantly improve HDL function
[5]
  side effects: no side effects
ApoE null mice [6]
  biological activities (HDL Inflammatory Index), D-4F versus Reverse D-4F: not significantly different
[7]
  association with pre-beta HDL and HDL: rapidly associates with pre-beta HDL and HDL
[7]; po
  time after an oral dose at which essentially non-detectable in the circulation: 6 h
Obese Zucker rats
  mitigation of symptoms of diabetes (plasma glucose, lipid hydroperoxides): effective in mitigating symptoms of diabetes

Source: patent publication US20110182992A1, “PEPTIDES AND PEPTIDE MIMETICS TO TREAT PATHOLOGIES ASSOCIATED WITH EYE DISEASE” (priority 2008, published 2011)
